The record followed here is PubChem BioAssay (NCI).

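Cells were grown in 96-well plates and exposed to each compound for 48 hours at five concentrations; endpoints were interpolated linearly between bracketing concentrations, or set to the highest concentration if not reached. GI50 = concentration required for 50% inhibition of growth. TGI: total growth inhibition.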

The first test deals with SW-620 colon. Nature of the test: inhibition of tumour cell growth, NCI panel, 48 h.
As to `Cn1cc(C2=C(c3cccc(Br)c3)C(=O)NC2=O)c2ccccc21`, the GI50 was 9440 nM and the TGI was above 25 µM.
As for `COc1ccc(-c2ccc(-c3ccc(C(=N)N)s3)s2)cc1`, the GI50 was 180 nM and the TGI was 0.353 µM.
For `Cc1cc(C)c(NC(=O)c2sc3nc4c(cc3c2N)CN(Cc2ccccc2)CC4)c(C)c1` the same measures were 2600 nM and 17.1 µM.

For another test, the system named is OVCAR-5 ovarian. Briefly: inhibition of tumour cell growth, NCI panel, 48 h.
As for `COc1cc2c(c(OC)c1OC)-c1ncc3cc4c(cc3c1C2)OCO4`, the GI50 was above 100 µM and the TGI is above 100 µM.
Take `CC1=C(C(=O)Nc2ccc(Cl)c(Cl)c2)C(c2cccc(Oc3ccccc3)c2)NC(=O)N1` (stereo not drawn): the GI50 is 13.4 µM and the TGI was determined as 33 µM.
For `COc1ccc(O)c(C(=O)c2ccc(C(=O)N[C@H]3CCCNC[C@@H]3NC(=O)c3ccncc3)cc2)c1F` the same measures were above 25 µM and above 25 µM.
For `COc1ccc(-n2c(C)cc(-c3ccccc3)c2C)cc1`, the GI50 was 2.48 µM and the TGI was determined as 14.6 µM.
The matching figures for `O[C@H](c1cc(C(F)(F)F)nc2c(C(F)(F)F)cccc12)[C@@H]1CCCCN1`: 7.21 µM and 20.7 µM.
Consider `CCCOc1ccc2sc(NC(=O)OC)nc2c1`, for which the GI50 is above 100 µM and the TGI is above 100 µM.
For `O=C(CSC1CCc2ccccc21)N/N=C/c1ccccc1O` (stereo not drawn), the GI50 is 8.8 µM and the TGI was above 100 µM.
`COc1cc(C(=O)N2CCN(c3ncccn3)CC2)c(N)cc1OCc1ccccc1`: the GI50 was 29.6 µM and the TGI is above 100 µM.
The matching figures for `O=C(Nc1ccc(F)cc1)c1cc(S(=O)(=O)Nc2nc3ccccc3o2)c(SCc2ccccc2)cc1Cl`: 19.7 µM and 35.1 µM.
For `CCN(Cc1ccccc1C)c1ccc(CO)c(Cl)c1` the same measures were 0.391 µM and 1.74 µM.
For `NC(=O)OCCn1cc(-c2nc(-c3c[nH]c4ncccc34)cs2)c2ccccc21` the same measures were 2.21 µM and 43.8 µM.
Consider `Cn1cc(C2=C(c3cccc(Br)c3)C(=O)NC2=O)c2ccccc21`, for which the GI50 was above 25 µM and the TGI was above 25 µM.
For the compound `COc1ccc(-c2ccc(-c3ccc(C(=N)N)s3)s2)cc1`, the GI50 is 0.197 µM and the TGI was 0.43 µM.
The matching figures for `COc1ccc(CCNC(=O)c2ccc(NC3=C(Cl)C(=O)N(Cc4ccccc4)C3=O)cc2)cc1OC`: 16.9 µM and 43.7 µM.
The matching figures for `Cc1cc(C)c(NC(=O)c2sc3nc4c(cc3c2N)CN(Cc2ccccc2)CC4)c(C)c1`: 12.5 µM and above 100 µM.
The matching figures for `O=C1NC(=NCCc2cccc(Cl)c2)S/C1=C\c1ccc2ncccc2c1`: above 25 µM and above 25 µM.

The next test concerns NCI/ADR-RES ovarian. Briefly: inhibition of tumour cell growth, NCI panel, 48 h.
For the compound `O=C1c2ccccc2-c2c1c1ccccc1c(=O)n2CCCCl`, the GI50 is 16.9 µM and the TGI stood at 73.3 µM.
The matching figures for `COc1cc2c(c(OC)c1OC)-c1ncc3cc4c(cc3c1C2)OCO4`: 32.1 µM and above 100 µM.
The matching figures for `COc1ccc(O)c(C(=O)c2ccc(C(=O)N[C@H]3CCCNC[C@@H]3NC(=O)c3ccncc3)cc2)c1F`: above 25 µM and above 25 µM.
For `COc1ccc(-n2c(C)cc(-c3ccccc3)c2C)cc1` the same measures were 3.33 µM and 21.5 µM.
Turning to `O[C@H](c1cc(C(F)(F)F)nc2c(C(F)(F)F)cccc12)[C@@H]1CCCCN1`, the GI50 was 3.09 µM and the TGI is 9.49 µM.
The matching figures for `CCCOc1ccc2sc(NC(=O)OC)nc2c1`: 0.793 µM and above 47.5 µM.
Consider `O=C(CSC1CCc2ccccc21)N/N=C/c1ccccc1O` (stereo not drawn), for which the GI50 is 3.44 µM and the TGI came out at 35 µM.
The matching figures for `COc1cc(C(=O)N2CCN(c3ncccn3)CC2)c(N)cc1OCc1ccccc1`: above 100 µM and above 100 µM.
The matching figures for `O=C(Nc1ccc(F)cc1)c1cc(S(=O)(=O)Nc2nc3ccccc3o2)c(SCc2ccccc2)cc1Cl`: 22.8 µM and 54.4 µM.
For `CCN(Cc1ccccc1C)c1ccc(CO)c(Cl)c1` the same measures were 14.5 µM and 43.8 µM.
In the case of `NC(=O)OCCn1cc(-c2nc(-c3c[nH]c4ncccc34)cs2)c2ccccc21`, the GI50 was 2.82 µM and the TGI was above 100 µM.
The matching figures for `Cn1cc(C2=C(c3cccc(Br)c3)C(=O)NC2=O)c2ccccc21`: 8.85 µM and above 25 µM.
The matching figures for `COc1ccc(-c2ccc(-c3ccc(C(=N)N)s3)s2)cc1`: 0.416 µM and 1.6 µM.
The matching figures for `COc1ccc(CCNC(=O)c2ccc(NC3=C(Cl)C(=O)N(Cc4ccccc4)C3=O)cc2)cc1OC`: 22.3 µM and 64.4 µM.
As to `Cc1cc(C)c(NC(=O)c2sc3nc4c(cc3c2N)CN(Cc2ccccc2)CC4)c(C)c1`, the GI50 was 1.64 µM and the TGI was found to be 6.24 µM.
For `O=C1NC(=NCCc2cccc(Cl)c2)S/C1=C\c1ccc2ncccc2c1` the same measures were above 25 µM and above 25 µM.

A further test concerns SF-295 CNS. Nature of the test: inhibition of tumour cell growth, NCI panel, 48 h.
Consider `O=C1c2ccccc2-c2c1c1ccccc1c(=O)n2CCCCl`, for which the GI50 was 6.34 µM and the TGI was determined as 23.1 µM.
The matching figures for `COc1cc2c(c(OC)c1OC)-c1ncc3cc4c(cc3c1C2)OCO4`: 15.6 µM and 39.8 µM.
With `CC1=C(C(=O)Nc2ccc(Cl)c(Cl)c2)C(c2cccc(Oc3ccccc3)c2)NC(=O)N1` (stereo not drawn), the GI50 was 5.57 µM and the TGI amounted to 16.6 µM.
As to `COc1ccc(O)c(C(=O)c2ccc(C(=O)N[C@H]3CCCNC[C@@H]3NC(=O)c3ccncc3)cc2)c1F`, the GI50 was 1.9 µM and the TGI was above 18.9 µM.
As to `COc1ccc(-n2c(C)cc(-c3ccccc3)c2C)cc1`, the GI50 was 2.2 µM and the TGI amounted to 7.58 µM.
For the compound `O[C@H](c1cc(C(F)(F)F)nc2c(C(F)(F)F)cccc12)[C@@H]1CCCCN1`, the GI50 was 2.08 µM and the TGI stood at 5.36 µM.
The matching figures for `CCCOc1ccc2sc(NC(=O)OC)nc2c1`: 2.69 µM and above 100 µM.
The matching figures for `O=C(CSC1CCc2ccccc21)N/N=C/c1ccccc1O` (stereo not drawn): 6.84 µM and above 100 µM.
For `COc1cc(C(=O)N2CCN(c3ncccn3)CC2)c(N)cc1OCc1ccccc1` the same measures were above 100 µM and above 100 µM.
Consider `O=C(Nc1ccc(F)cc1)c1cc(S(=O)(=O)Nc2nc3ccccc3o2)c(SCc2ccccc2)cc1Cl`, for which the GI50 is 15 µM and the TGI was 29.2 µM.
As to `CCN(Cc1ccccc1C)c1ccc(CO)c(Cl)c1`, the GI50 is 4.15 µM and the TGI was found to be 16.9 µM.
In the case of `NC(=O)OCCn1cc(-c2nc(-c3c[nH]c4ncccc34)cs2)c2ccccc21`, the GI50 was 2.29 µM and the TGI is 7.7 µM.
For `Cn1cc(C2=C(c3cccc(Br)c3)C(=O)NC2=O)c2ccccc21` the same measures were 12.9 µM and above 25 µM.
For `COc1ccc(-c2ccc(-c3ccc(C(=N)N)s3)s2)cc1` the same measures were 0.188 µM and 0.395 µM.
Regarding `COc1ccc(CCNC(=O)c2ccc(NC3=C(Cl)C(=O)N(Cc4ccccc4)C3=O)cc2)cc1OC`, the GI50 was 29.4 µM and the TGI is above 100 µM.
The matching figures for `Cc1cc(C)c(NC(=O)c2sc3nc4c(cc3c2N)CN(Cc2ccccc2)CC4)c(C)c1`: 1.89 µM and 64.7 µM.
The matching figures for `O=C1NC(=NCCc2cccc(Cl)c2)S/C1=C\c1ccc2ncccc2c1`: above 25 µM and above 25 µM.

For the next test, the system named is HCT-116 colon. Nature of the test: inhibition of tumour cell growth, NCI panel, 48 h.
For the compound `O=C1c2ccccc2-c2c1c1ccccc1c(=O)n2CCCCl`, the GI50 is 3.65 µM and the TGI worked out at 17.8 µM.
The matching figures for `COc1cc2c(c(OC)c1OC)-c1ncc3cc4c(cc3c1C2)OCO4`: 18.8 µM and 48.3 µM.
The matching figures for `COc1ccc(O)c(C(=O)c2ccc(C(=O)N[C@H]3CCCNC[C@@H]3NC(=O)c3ccncc3)cc2)c1F`: 12.3 µM and above 25 µM.
The matching figures for `COc1ccc(-n2c(C)cc(-c3ccccc3)c2C)cc1`: 2.11 µM and 16.1 µM.
Regarding `O[C@H](c1cc(C(F)(F)F)nc2c(C(F)(F)F)cccc12)[C@@H]1CCCCN1`, the GI50 was 2.3 µM and the TGI was determined as 5.44 µM.
The matching figures for `CCCOc1ccc2sc(NC(=O)OC)nc2c1`: 1.06 µM and above 100 µM.
With `O=C(CSC1CCc2ccccc21)N/N=C/c1ccccc1O` (stereo not drawn), the GI50 is 5.01 µM and the TGI was determined as 65.6 µM.
The matching figures for `COc1cc(C(=O)N2CCN(c3ncccn3)CC2)c(N)cc1OCc1ccccc1`: above 100 µM and above 100 µM.
For `O=C(Nc1ccc(F)cc1)c1cc(S(=O)(=O)Nc2nc3ccccc3o2)c(SCc2ccccc2)cc1Cl` the same measures were 17.9 µM and 31.7 µM.
The matching figures for `CCN(Cc1ccccc1C)c1ccc(CO)c(Cl)c1`: 0.445 µM and 11.6 µM.
With `NC(=O)OCCn1cc(-c2nc(-c3c[nH]c4ncccc34)cs2)c2ccccc21`, the GI50 is 1.72 µM and the TGI amounted to 5.02 µM.
The matching figures for `Cn1cc(C2=C(c3cccc(Br)c3)C(=O)NC2=O)c2ccccc21`: 7.62 µM and above 25 µM.
Take `COc1ccc(-c2ccc(-c3ccc(C(=N)N)s3)s2)cc1`: the GI50 was 0.179 µM and the TGI was 0.342 µM.
The matching figures for `COc1ccc(CCNC(=O)c2ccc(NC3=C(Cl)C(=O)N(Cc4ccccc4)C3=O)cc2)cc1OC`: 6.04 µM and above 100 µM.
`Cc1cc(C)c(NC(=O)c2sc3nc4c(cc3c2N)CN(Cc2ccccc2)CC4)c(C)c1`: the GI50 is 2.89 µM and the TGI amounted to 16 µM.

The subject of a further test is EKVX NSCLC. Nature of the test: inhibition of tumour cell growth, NCI panel, 48 h.
As to `O=C1c2ccccc2-c2c1c1ccccc1c(=O)n2CCCCl`, the GI50 was 18.1 µM and the TGI is above 100 µM.
The matching figures for `COc1cc2c(c(OC)c1OC)-c1ncc3cc4c(cc3c1C2)OCO4`: 15.6 µM and 51.7 µM.
Consider `CC1=C(C(=O)Nc2ccc(Cl)c(Cl)c2)C(c2cccc(Oc3ccccc3)c2)NC(=O)N1` (stereo not drawn), for which the GI50 is 5.21 µM and the TGI was 16.3 µM.
The matching figures for `O[C@H](c1cc(C(F)(F)F)nc2c(C(F)(F)F)cccc12)[C@@H]1CCCCN1`: 4.32 µM and 17.3 µM.
In the case of `O=C(Nc1ccc(F)cc1)c1cc(S(=O)(=O)Nc2nc3ccccc3o2)c(SCc2ccccc2)cc1Cl`, the GI50 is 17.1 µM and the TGI is 34 µM.
The matching figures for `NC(=O)OCCn1cc(-c2nc(-c3c[nH]c4ncccc34)cs2)c2ccccc21`: 1.3 µM and 7.68 µM.
For the compound `COc1ccc(CCNC(=O)c2ccc(NC3=C(Cl)C(=O)N(Cc4ccccc4)C3=O)cc2)cc1OC`, the GI50 was 24.9 µM and the TGI was above 100 µM.
